From ChEMBL document CHEMBL3272027, “Chemoimmunotherapy of cancer” (1977)

Key:
Type in all cases: functional
[1] = test system: P388; test: In vivo antitumor activity against mouse P388 cells in 3PS31 test system at 25 mg/kg administered on day 1, 5 and 9 relative to control
[2] = test system: P388; test: In vivo antitumor activity against mouse P388 cells in 3PS31 test system at 12.5 mg/kg administered on day 1, 5 and 9 relative to control
[3] = test system: P388; test: In vivo antitumor activity against mouse P388 cells in 3PS31 test system at 50 mg/kg administered on day 1, 5 and 9 relative to control
[4] = test system: P388; test: In vivo antitumor activity against mouse P388 cells in 3PS31 test system at 6.25 mg/kg administered on day 1, 5 and 9 relative to control
[5] = test system: P388; test: In vivo antitumor activity against mouse P388 cells in 3PS31 test system at 75 mg/kg administered on day 1, 5 and 9 relative to control

SMILES | T/C [1] [%] | T/C [2] [%] | T/C [3] [%] | T/C [4] [%] | T/C [5] [%]
O=[N+]([O-])c1cc([N+](=O)[O-])c(NCCCSCCCl)c(S(=O)(=O)O)c1 | 136 | 132 | 128 | 111 | 
O=[N+]([O-])c1cc([N+](=O)[O-])c(NCCSCCCl)c(S(=O)(=O)O)c1 | 124 | 111 | 124 |  | 118
O=C(O)c1cc([N+](=O)[O-])cc([N+](=O)[O-])c1NCCSCCCl | 111 | 102 | 106 |  | 
